Tests used:
Assay type in all cases: in vivo
Barnyardgrass [1] = test: Pre-emergent herbicidal activity (Table A); settings: Bygr, 11.2 kg/ha, 10-14 days
Procedure, shortened: (§1)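 Seeds or vegetative propagules were set on topsoil compacted to 0.95 to 1.27 cm below the pan rim, then covered with soil thoroughly mixed with a known amount of test compound in acetone or water carrier. Ratings follow a scale of percent inhibition per species.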

Canada thistle [2] = test: Pre-emergent herbicidal activity (Table A); settings: Cath, 11.2 kg/ha, 10-14 days
Procedure, shortened: as §1

Cocklebur [3] = test: Pre-emergent herbicidal activity (Table A); settings: Cobu, 11.2 kg/ha, 10-14 days
Procedure, shortened: as §1

Common Lambsquarters [4] = test: Pre-emergent herbicidal activity (Table A); settings: Colq, 11.2 kg/ha, 10-14 days
Procedure, shortened: as §1

Downy Brome [5] = test: Pre-emergent herbicidal activity (Table A); settings: Dobr, 11.2 kg/ha, 10-14 days
Procedure, shortened: as §1

Morningglory [6] = test: Pre-emergent herbicidal activity (Table A); settings: Mogl, 11.2 kg/ha, 10-14 days
Procedure, shortened: as §1

Pennsylvania Smartweed [7] = test: Pre-emergent herbicidal activity (Table A); settings: Pesw, 11.2 kg/ha, 10-14 days
Procedure, shortened: as §1

Quackgrass [8] = test: Pre-emergent herbicidal activity (Table A); settings: Rhqg, 11.2 kg/ha, 10-14 days
Procedure, shortened: as §1

Rhizome Johnsongrass [9] = test: Pre-emergent herbicidal activity (Table A); settings: Rhjg, 11.2 kg/ha, 10-14 days
Procedure, shortened: as §1

Velvetleaf [10] = test: Pre-emergent herbicidal activity (Table A); settings: Vele, 11.2 kg/ha, 10-14 days
Procedure, shortened: as §1

Yellow Nutsedge [11] = test: Pre-emergent herbicidal activity (Table A); settings: Yens, 11.2 kg/ha, 10-14 days
Procedure, shortened: as §1

Canada thistle [12] = test: Post-emergence herbicidal activity (Table C); settings: Cath, 11.2 kg/ha, 10-14 days
Text: (§2) The post-emergent activity is best seen on younger plants treated at the 11/2 to 2 leaf stage. In the tests which follow, larger and more developed plants were used.
(§3) The post-emergent herbicidal activity index used in Table C is as follows:
(§4) Top soil was placed in pans having holes in the bottom and compacted to a depth of 0.95 to 1.27 cm. from the top of the pan. A predetermined number of seeds of each of several dicotyledonous and monocotyledonous annual plant species and/or vegetative propagules for the perennial plant species were placed on the soil and pressed into the soil surface. The seeds and/or vegetative propagules were covered with soil and leveled. The pans were then placed on a bench in the greenhouse and watered as needed for germination and growth. After the plants reached the desired age (two to three weeks), each pan (except the control pans) was moved to a spraying chamber and sprayed by means of an atomizer. The spray solution or suspension contained about 0.4% by volume of an emulsifying agent and a sufficient amount of the candidate chemical to give an application rate of the active ingredient of 11.2 kg/ha while applying a total amount of solution or suspension equivalent to 1870 L/ha. […] The plant identifying codes in Table C are the same as above defined.

Cocklebur [13] = test: Post-emergence herbicidal activity (Table C); settings: Cobu, 11.2 kg/ha, 10-14 days
Text: as §2, §3, §4

Downy Brome [14] = test: Post-emergence herbicidal activity (Table C); settings: Dobr, 11.2 kg/ha, 10-14 days
Text: as §2, §3, §4

Morningglory [15] = test: Post-emergence herbicidal activity (Table C); settings: Mogl, 11.2 kg/ha, 10-14 days
Text: as §2, §3, §4

Pennsylvania Smartweed [16] = test: Post-emergence herbicidal activity (Table C); settings: Pesw, 11.2 kg/ha, 10-14 days
Text: as §2, §3, §4

Quackgrass [17] = test: Post-emergence herbicidal activity (Table C); settings: Rhqg, 11.2 kg/ha, 10-14 days
Text: as §2, §3, §4

Rhizome Johnsongrass [18] = test: Post-emergence herbicidal activity (Table C); settings: Rhjg, 11.2 kg/ha, 10-14 days
Text: as §2, §3, §4

Velvetleaf [19] = test: Post-emergence herbicidal activity (Table C); settings: Vele, 11.2 kg/ha, 10-14 days
Text: as §2, §3, §4

Yellow Nutsedge [20] = test: Post-emergence herbicidal activity (Table C); settings: Yens, 11.2 kg/ha, 10-14 days
Text: as §2, §3, §4

Barnyardgrass [21] = test: Post-emergence herbicidal activity (Table C); settings: Bygr, 11.2 kg/ha, 10-14 days
Text: (§5) In the tests which follow, larger and more developed plants were used.
as §3
as §4, with “atomizer.” for “atomizer. The spray solution or suspension contained about 0.4% by volume of an emulsifying agent and a sufficient amount of the candidate chemical to give an application rate of the active ingredient of 11.2 kg/ha while applying a total amount of solution or suspension equivalent to 1870 L/ha.”

Common Lambsquarters [22] = test: Post-emergence herbicidal activity (Table C); settings: Colq, 11.2 kg/ha, 10-14 days
Text: as §5, §3
as §4, with “atomizer.” for “atomizer. The spray solution or suspension contained about 0.4% by volume of an emulsifying agent and a sufficient amount of the candidate chemical to give an application rate of the active ingredient of 11.2 kg/ha while applying a total amount of solution or suspension equivalent to 1870 L/ha.”

3-pyridinecarboxylic acid, 5-(aminocarbonyl)-1,2,3,4-tetrahydro-4-(2-methylpropyl)-6-(pentafluoroethyl)-, ethyl ester [Compound 10]
0 (0-24% inhibition): post-emergent herbicidal activity index (Canada thistle [12]) | post-emergent herbicidal activity index (Cocklebur [13]) | post-emergent herbicidal activity index (Downy Brome [14]) | post-emergent herbicidal activity index (Morningglory [15]) | post-emergent herbicidal activity index (Pennsylvania Smartweed [16]) | post-emergent herbicidal activity index (Quackgrass [17]) | post-emergent herbicidal activity index (Rhizome Johnsongrass [18]) | post-emergent herbicidal activity index (Velvetleaf [19]) | post-emergent herbicidal activity index (Yellow Nutsedge [20]) | post-emergent herbicidal activity index (Barnyardgrass [21]) | post-emergent herbicidal activity index (Common Lambsquarters [22])
0 (0-24): herbicidal rating (% inhibition) (Barnyardgrass [1]) | herbicidal rating (% inhibition) (Canada thistle [2]) | herbicidal rating (% inhibition) (Cocklebur [3]) | herbicidal rating (% inhibition) (Common Lambsquarters [4]) | herbicidal rating (% inhibition) (Downy Brome [5]) | herbicidal rating (% inhibition) (Morningglory [6]) | herbicidal rating (% inhibition) (Pennsylvania Smartweed [7]) | herbicidal rating (% inhibition) (Quackgrass [8]) | herbicidal rating (% inhibition) (Rhizome Johnsongrass [9]) | herbicidal rating (% inhibition) (Velvetleaf [10]) | herbicidal rating (% inhibition) (Yellow Nutsedge [11])

Reference: patent publication US5391540A, “Substituted pyridine compounds” (Rohm and Haas Company, priority 1993, dated 1995)
